Assay results from patent US10294202B2, “Pyrrolidinones as herbicides” (FMC Corporation, priority 2013, dated 2019).

What was measured:
ragweed = test: Test A pre-/postemergence herbicide test; assay type: in vivo, Ambrosia elatior; settings: for Plant response rating, Ragweed: 0 to 100 scale
In short: (§1)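 Scoring was visual, relative to untreated controls, on a 0–100 scale after about 10 greenhouse days. Preemergence treatment used a directed soil spray over seeded loam/sand; postemergence treatment targeted one- to two-leaf plants of 2–10 cm.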

ducksalad = test: Test B flooded paddy test; assay type: in vivo, Heteranthera limosa; settings: 500 g ai/ha, Flood; scale of 0 to 100 where 0 is no effect and 100 is complete control
In short: (§2)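 Plants grown to 2-leaf stage; pots flooded 3 cm above soil and compound applied directly into paddy water, depth held throughout. Visual rating against untreated controls after 13 to 15 days in greenhouse, 0 (no effect) to 100 (complete control).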

giant foxtail = test: Test A pre-/postemergence herbicide test; assay type: in vivo, Setaria faberii; settings: for Plant response rating, Foxtail, Giant: 0 to 100 scale
In short: as §1

kochia = test: Test A pre-/postemergence herbicide test; assay type: in vivo, Kochia scoparia; settings: for Plant response rating, Kochia: 0 to 100 scale
In short: as §1

ryegrass, Italian = test: Test A pre-/postemergence herbicide test; assay type: in vivo, Lolium multiflorum; settings: for Plant response rating, Ryegrass, Italian: 0 to 100 scale
In short: as §1

galium = test: Test A postemergence herbicide test; assay type: in vivo, Galium aparine; settings: for Plant response rating, Galium: 125 g ai/ha, 0 to 100 scale, 0 is no effect, 100 is complete control; for Galium plant response rating (0 to 100 scale, 0 is no effect, 100 is complete control): 500 g ai/ha
In short: (§3)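 Blackgrass and galium grown in pots of loam soil–sand blend, treated postemergence at 2–10 cm height, one- to two-leaf stage. Plants kept in greenhouse ~10 days, then visually rated for injury against untreated controls on a 0–100 scale (0 no effect, 100 complete control).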

rice = test: Test B flooded paddy test; assay type: in vivo, Oryza sativa; settings: 500 g ai/ha, Flood; scale of 0 to 100 where 0 is no effect and 100 is complete control
In short: as §2

corn = test: Test A pre-/postemergence herbicide test; assay type: in vivo, Zea mays; settings: Postemergence; for Plant response rating, Corn: 125 g ai/ha, 0 to 100 scale, 0 is no effect, 100 is complete control; for Corn plant response rating (0 to 100 scale, 0 is no effect, 100 is complete control): 500 g ai/ha
In short: as §1

barnyardgrass [1] = test: Test B flooded paddy test; assay type: in vivo, Echinochloa crus-galli; settings: 500 g ai/ha, Flood; scale of 0 to 100 where 0 is no effect and 100 is complete control
In short: as §2

pigweed = test: Test A pre-/postemergence herbicide test; assay type: in vivo, Amaranthus retroflexus; settings: for Plant response rating, Pigweed: 0 to 100 scale
In short: as §1

wheat = test: Test A pre-/postemergence herbicide test; assay type: in vivo, Triticum aestivum; settings: Postemergence; for Plant response rating, Wheat: 125 g ai/ha, 0 to 100 scale, 0 is no effect, 100 is complete control; for Wheat plant response rating (0 to 100 scale, 0 is no effect, 100 is complete control): 500 g ai/ha
In short: as §1

barnyardgrass [2] = test: Test A pre-/postemergence herbicide test; assay type: in vivo, Echinochloa crus-galli; settings: for Plant response rating, Barnyardgrass: 0 to 100 scale
In short: as §1

blackgrass = test: Test A postemergence herbicide test; assay type: in vivo, Alopecurus myosuroides; settings: for Plant response rating, Blackgrass: 125 g ai/ha, 0 to 100 scale, 0 is no effect, 100 is complete control; for Blackgrass plant response rating (0 to 100 scale, 0 is no effect, 100 is complete control): 500 g ai/ha
In short: as §3

sedge, umbrella = test: Test B flooded paddy test; assay type: in vivo, Cyperus difformis; settings: 500 g ai/ha, Flood; scale of 0 to 100 where 0 is no effect and 100 is complete control
In short: as §2

[3] = 125 g ai/ha, visual rating, 0 no effect, 100 complete control, approximately 10 days, preemergence
[4] = Postemergence, 125 g ai/ha, 0 is no effect, 100 is complete control
[5] = preemergence, 500 g ai/ha, 0 is no effect and 100 is complete control

Row | SMILES | Plant response rating, Ragweed (ragweed; [3]) | Plant response rating, Ragweed (ragweed; [4]) | Ragweed plant response rating (0 to 100 scale, 0 is no effect, 100 is complete control) (ragweed; Postemergence, 500 g ai/ha) | Plant response rating, Ducksalad (ducksalad) | Plant response rating, Foxtail, Giant (giant foxtail; [3]) | Plant response rating, Foxtail, Giant (giant foxtail; [4]) | Foxtail, Giant plant response rating (0 to 100 scale, 0 is no effect, 100 is complete control) (giant foxtail; Postemergence, 500 g ai/ha) | Plant response rating, Foxtail, Giant (giant foxtail; [5]) | Plant response rating, Kochia (kochia; [3]) | Plant response rating, Kochia (kochia; [4]) | Kochia plant response rating (0 to 100 scale, 0 is no effect, 100 is complete control) (kochia; Postemergence, 500 g ai/ha) | Plant response rating, Kochia (kochia; [5]) | Plant response rating, Ryegrass, Italian (ryegrass, Italian; [3]) | Plant response rating, Ryegrass, Italian (ryegrass, Italian; [4]) | Ryegrass, Italian plant response rating (0 to 100 scale, 0 is no effect, 100 is complete control) (ryegrass, Italian; Postemergence, 500 g ai/ha) | Plant response rating, Ryegrass, Italian (ryegrass, Italian; [5]) | Plant response rating, Galium (galium) | Galium plant response rating (0 to 100 scale, 0 is no effect, 100 is complete control) (galium) | Plant response rating, Rice (rice) | Plant response rating, Corn (corn) | further results
1 | O=C1NCC(c2cccc(OC(F)F)c2)C1C(=O)Nc1ccccc1Cl (centres unmarked) [Compound 229] | 0 | 20 | 60 | 100 | 90 | 80 | 90 | 90 | 0 | 10 | 60 | 70 | 10 | 30 | 40 | 20 | 60 | 70 | 0 | 0 | Corn plant response rating (0 to 100 scale, 0 is no effect, 100 is complete control) (corn): 0; Plant response rating, Barnyardgrass (barnyardgrass [1]): 50; Plant response rating, Pigweed (pigweed; [3]): 0; Plant response rating, Pigweed (pigweed; [4]): 0; Pigweed plant response rating (0 to 100 scale, 0 is no effect, 100 is complete control) (pigweed; Postemergence, 500 g ai/ha): 0; Plant response rating, Pigweed (pigweed; [5]): 0; Plant response rating, Wheat (wheat): 0; Wheat plant response rating (0 to 100 scale, 0 is no effect, 100 is complete control) (wheat): 0; Plant response rating, Barnyardgrass (barnyardgrass [2]; [3]): 70; Plant response rating, Barnyardgrass (barnyardgrass [2]; [4]): 70; Barnyardgrass plant response rating (0 to 100 scale, 0 is no effect, 100 is complete control) (barnyardgrass [2]; Postemergence, 500 g ai/ha): 80; Plant response rating, Barnyardgrass (barnyardgrass [2]; [5]): 90; Plant response rating, Blackgrass (blackgrass): 40; Blackgrass plant response rating (0 to 100 scale, 0 is no effect, 100 is complete control) (blackgrass): 70; Plant response rating, Sedge, Umbrella (sedge, umbrella): 0
2 | Cc1ccccc1NC(=O)C1C(=O)NCC1c1cccc(OC(F)F)c1 (centres unmarked) [Compound 230] | 0 | 0 | 30 | 75 | 90 | 70 | 90 | 90 | 0 | 0 | 40 | 30 | 0 | 0 | 20 | 30 | 20 | 50 | 0 | 20 | Plant response rating, Ragweed (ragweed; [5]): 20; Corn plant response rating (0 to 100 scale, 0 is no effect, 100 is complete control) (corn): 40; Plant response rating, Barnyardgrass (barnyardgrass [1]): 60; Plant response rating, Pigweed (pigweed; [3]): 0; Plant response rating, Pigweed (pigweed; [4]): 0; Pigweed plant response rating (0 to 100 scale, 0 is no effect, 100 is complete control) (pigweed; Postemergence, 500 g ai/ha): 0; Plant response rating, Pigweed (pigweed; [5]): 20; Plant response rating, Wheat (wheat): 20; Wheat plant response rating (0 to 100 scale, 0 is no effect, 100 is complete control) (wheat): 20; Plant response rating, Barnyardgrass (barnyardgrass [2]; [3]): 30; Plant response rating, Barnyardgrass (barnyardgrass [2]; [4]): 60; Barnyardgrass plant response rating (0 to 100 scale, 0 is no effect, 100 is complete control) (barnyardgrass [2]; Postemergence, 500 g ai/ha): 90; Plant response rating, Barnyardgrass (barnyardgrass [2]; [5]): 90; Plant response rating, Blackgrass (blackgrass): 20; Blackgrass plant response rating (0 to 100 scale, 0 is no effect, 100 is complete control) (blackgrass): 50; Plant response rating, Sedge, Umbrella (sedge, umbrella): 0
